Literature values, collected in patent US20100003344A1, “Cosmetic Skincare Method Employing Mechanical Stresses” (L'OREAL, priority 2005, published 2010).
Like-named read-outs stand apart in the source and are kept apart here. Ends that are not written are not given here.

What was measured:
beta1 integrins = conditions: stated as known
β1 integrins [1] = conditions: cells in culture
[2] = system: α2, α3, α6, αv and β1 integrins; conditions: keratinocytes in culture or in reconstructed skins
β1 integrins [3] = system: β1 integrins
β1 integrins [4] = conditions: applied to the skin ex vivo

Substance | number of mechanoreceptors (beta1 integrins) on the surface of the keratinocytes (beta1 integrins) | expression of integrins, in particular the α2, α3, α6, αv and β1 integrins [2] | further results
KLDAPT [VINCI 02] | increase the number of mechanoreceptors |  | expression of β1 integrins (β1 integrins [1]): stimulates the expression of β1 integrins
copper gluconate |  | capable of increasing the expression of integrins | 
RDFTKATNIRLRFLR [VINCI 01] |  |  | expression of β1 integrins (β1 integrins [3]): stimulates the expression of β1 integrins
zinc gluconate |  | capable of increasing the expression of integrins | 
GPQGPQ [COLLAXYL] |  |  | expression of β1 integrins (β1 integrins [4]): stimulates the expression of β1 integrins
manganese gluconate | increase the number of mechanoreceptors | capable of increasing the expression of integrins | 
